Measurements as given in US20240115654A1, “INTRAVENOUS ADMINISTRATION OF ENGINEERED ANTIMICROBIAL AMPHIPHILIC PEPTIDES” (priority 2021, published 2024).
Several values for one entry are separate records, joined by “and”; a condition that tells them apart may be missing. Equal entries are not always repeated. Where two headings read alike, the source gives them in different places. Peptide text beside a SMILES is read from it.

Conditions: 30 min IV infusion
Description: Animals will be obtained from the Test Facility's colony of adult male cynomolgous monkeys (Macaca fascicularis) of Chinese origin. Animals will be weighed prior to dosing.
Animals will be fasted a minimum of 2 hours prior to procedures requiring the administration of ketamine anesthesia. The diet will also be supplemented with other nutrients by feeding items such as raisins or fresh fruits that are presented to the animal as part of an environmental enrichment program. Offering items known to cause diarrhea will be avoided.
Intravenous administration will be via 30 minute infusion into a temporary percutaneous catheter placed into a saphenous vein. Prior to and following dose administration, the catheter will be flushed with 0.5 mL saline prior to removal. All dosing syringes will be weighed prior to and following dosing.
Serial blood samples will be collected via femoral vein (cephalic or saphenous, as necessary). Approximately 1 mL blood samples will be collected into K2EDTA tubes.
Blood samples will be collected into K2EDTA tubes and stored on wet ice. Whole blood will be processed to plasma by centrifugation (2400-2700 rpm at 5° C.) within 30 minutes of collection. Plasma samples will be split into 2 equal aliquots and stored at −80° C. until analysis.
Prior to extraction, a known concentration of a mass-adjusted internal standard (IS) will be added to assess recovery and allow for quantitation. Purified samples will be further subjected to high-performance liquid chromatography (HPLC) using C18 300 or 130 angstrom columns prior to MS/MS analysis. Multiple charge states will be observed by MS, so MS/MS will be employed to enable multiple reaction monitoring (MRM) analyses to determine the most MRM transitions with the highest signal-to-noise gain. Compound plasma concentrations will be determined by comparing to and compensating with co-purified IS peak intensity and validated calibrated standard curves.
Toxicokinetic parameters will be calculated using non-compartmental methods as implemented in the Phoenix® WinNonlin® ver. 6.3 comprehensive TK/PK analysis software program (Pharsight Corporation; Mountain View, CA) using an IV infusion model. Toxicokinetic analysis will be conducted using a 30-minute intravenous infusion time. Therefore, 30 minutes will be added to each sample time point postdose to obtain nominal time for TK analysis. Nominal times and dosage levels will be used for all calculations. Values below the lower limit of quantitation (BLQ) will be assigned a value of zero for the toxicokinetic calculations. Microsoft® Excel® 2013 will be used for receipt of bioanalytical data, minor formatting, including setting BLQ values to “0”, transfer into WinNonlin® for TK analysis, and calculation of the mean when an approximated value will be excluded. All plasma concentration data from all animals will be included in the analysis. Graphical presentations will be performed using Prism® for Macintosh ver. 7.0a (GraphPad, Inc.; La Jolla, CA).

For CC(C)[C@H](NC(=O)[C@H](Cc1c[nH]c2ccccc12)NC(=O)[C@H](CCCNC(=N)N)NC(=O)[C@H](CCCNC(=N)N)NC(=O)[C@@H](NC(=O)[C@@H](NC(=O)[C@H](CCCNC(=N)N)NC(=O)[C@@H](NC(=O)[C@@H](NC(=O)[C@H](CCCNC(=N)N)NC(=O)[C@H](CCCNC(=N)N)NC(=O)[C@H](Cc1c[nH]c2ccccc12)NC(=O)[C@@H](NC(=O)[C@H](CCCNC(=N)N)NC(=O)[C@H](CCCNC(=N)N)NC(=O)[C@@H](NC(=O)[C@H](CCCNC(=N)N)NC(=O)[C@H](CCCNC(=N)N)NC(=O)[C@@H](NC(=O)[C@H](Cc1c[nH]c2ccccc12)NC(=O)[C@H](CCCNC(=N)N)NC(=O)[C@@H](N)CCCNC(=N)N)C(C)C)C(C)C)C(C)C)C(C)C)C(C)C)C(C)C)C(C)C)C(=O)N[C@@H](CCCNC(=N)N)C(=O)N[C@@H](CCCNC(=N)N)C(N)=O [SEQ ID NO: 1] (H-RRWVRRVRRVWRRVVRVVRRWVRR-NH2), the “AUCinf Extrapolated” value (1 mg/kg, Mean of group) was 10.0%, the CL (1 mg/kg, Mean of group) was 18.5 mL/min/kg and the “Dose Normalized AUClast” value (1 mg/kg, Mean of group) was 983. The “Dose Normalized Cmax” value (1 mg/kg, Mean of group) was 1710, the Vss (1 mg/kg, Mean of group) was 1.38 L/kg and the CL (1 mg/kg, individual monkeys) was 9.65 mL/min/kg. The “Dose Normalized AUClast” value (1 mg/kg, individual monkeys) was 740 and 1610 and 595, the “Dose Normalized Cmax” value (1 mg/kg, individual monkeys) was 1460 and 2660 and 997 and the “AUCinf Extrapolated” value (3 mg/kg, Mean of group) was 1.5%. For the same compound, the CL (3 mg/kg, Mean of group) was 7.18 mL/min/kg, the “Dose Normalized AUClast” value (3 mg/kg, Mean of group) was 2530 and the “Dose Normalized Cmax” value (3 mg/kg, Mean of group) was 3450. For the same compound, the T1/2 (3 mg/kg, Mean of group) was 5.2 h, the Tmax (3 mg/kg, Mean of group) was 6.6 min and the “AUCinf Extrapolated” value (3 mg/kg, individual monkeys) was 1.2% and 2.3% and 1.1%. The “Dose Normalized AUClast” value (3 mg/kg, individual monkeys) was 2220 and 3660 and 1710, the “Dose Normalized Cmax” value (3 mg/kg, individual monkeys) was 2280 and 5170 and 2900 and the T1/2 (3 mg/kg, individual monkeys) was 5 h. The “AUCinf Extrapolated” value (10 mg/kg, Mean of group) was 1.3%, the CL (10 mg/kg, Mean of group) was 6.32 mL/min/kg and the “Dose Normalized AUClast” value (10 mg/kg, Mean of group) was 5030. The “Dose Normalized Cmax” value (10 mg/kg, Mean of group) was 3820, the T1/2 (10 mg/kg, Mean of group) was 4.6 h and the “AUCinf Extrapolated” value (10 mg/kg, individual monkeys) was 1.0% and 1.8% and 0.99%. For the same compound, the CL (10 mg/kg, individual monkeys) was 7.5 mL/min/kg, the “Dose Normalized Cmax” value (10 mg/kg, individual monkeys) was 2600 and 2430 and 6430 and the T1/2 (10 mg/kg, individual monkeys) was 4.3 h and 4.9 h and 4.6 h.
